According to patent US20230263956A1, “INGESTIBLE DRUG DELIVERY DEVICE” (Massachusetts Institute of Technology, priority 2020, published 2023):

Test: In vivo testing: tethered device jetting insulin into the stomach wall
Set-up: species or system Yorkshire pigs
Settings: jet of insulin into stomach wall, 0.5 Units per kilogram, three of the five device tests, samples until two hours after deployment
Procedure: Studies were performed by trained veterinary technicians at MIT's animal testing facilities. Yorkshire pigs weighing between 70 and 90 kg were used. All studies were terminal studies (meaning the animal was euthanized immediately afterward). […] The testing protocol is described further below.
This formulation procedure was carried out the morning or evening before each in vivo study, and the resulting solution it was stored at 4° C. until the time of administration.
The device was loaded with API and CO2 in the operating room where the animal was sedated and intubated. The device was deployed either by direct placement into the stomach through a laparotomy, or via an over-tube with an endoscope and snare. Of the five deployments performed with this device, the first three were performed by laparotomy, and the latter two by endoscope. Triggering generally occurred within 15 minutes and could be identified through recoil and minor foaming near the base of the device.
Blood samples were collected by ear catheter or femoral catheter. […] The blood-glucose level was monitored at each draw using commercial glucose monitoring strips. […] The samples were then subsequently analyzed with a custom Ezyme-linked immunosorbent assay (ELISA) for […].

Substance: insulin
- blood glucose levels: drop in blood glucose levels
